In this test the test system is neuropathic pain (chronic constriction injury, CCI). Put plainly: In vivo assessment of analgesic effect against neuropathic pain (Bennett model, chronic constriction injury, tactile allodynia with von Frey filaments). Particulars: Rattus norvegicus, po, 1 h, male Sprague Dawley rats, 10 mg/kg orally, mechanical allodynia 60 minutes following administration, percentage of maximum possible effect from log g PWT, read-out: % MPE. The procedure: (ii) Vivo Assessment of Analgesic Effect Against Neuropathic Pain (Bennett Model)
Animals were prepared for testing, by use of a surgical procedure that induces neuropathic pain in one paw. IACUC guidelines for rodent survival surgery were followed. All surgical procedures were conducted on a clean, uncluttered surgical station. The area was wiped with a 70% ethanol solution before and after use. All instruments were sterilized by either autoclave or chemical sterilant (such as 2% glutaraldehyde>10 hours). Surgeons wore sterile gloves (for the initial procedure), clean lab coat or scrubs, hairnet or cap, and a half-mask respirator (when not working under a hood). Surgeons thoroughly washed their hands prior to donning sterile gloves. Gloves were disinfected in-between animals by cleansing with povidone iodine, chlorhexidine or 70% alcohol for at least 30 seconds. If multiple surgeries were performed, the instruments were cleaned and sterilized between procedures with hot glass beads (>10 seconds). To prevent thermal or chemical burns, the instruments were cooled by rinsing in sterile saline before use.
Male, Sprague Dawley® rats, 175-200 g were used for surgeries. To minimize post-operative dehydration/maintain blood volume during the surgery, warmed sterile saline or Lactate Ringers solution at 10-15 mL/kg was administered subcutaneously immediately before or after surgery. This facilitates better renal function and presumably anesthesia product excretion post surgery. For all surgical procedures, anesthesia was induced with 4-5% isoflurane. Anesthesia was maintained during surgery with 1-3% isoflurane. Following induction, the surgical site was carefully shaved and the exposed area was aseptically prepared with povidone-iodine scrub solution and 70% ethanol 2-3 times.
Chronic constriction injury (CCI), a model of neuropathic pain, was produced by following the method of Bennett and Xie (Bennett, G., et al. Pain, 1988, 33, 87-107). After site sterilization and anesthetic procedures outline above were completed, a 1.5 cm incision is made at the mid-thigh level to expose the biceps femoris and gluteous superficialis (right side), which were then separated by blunt dissection. The common sciatic nerve was exposed, isolated, and loosely ligated by four 5-0 chromic gut ligatures with <1 mm spacing between each. The surgical site was closed in layers—muscle is closed with 6.0 absorbable sutures, and the skin closed with wound clips. Animals were allowed to recover on a warming plate and were returned to their home cages when fully ambulatory. Animals were not be used for testing until at least 10 days following surgery.
To measure mechanical sensitivity, tactile allodynia was measured using calibrated von Frey filaments (Stoelting, Wood Dale, Ill.) as described by Chaplan et al. (Chaplan S., et al. J of Neuroscience Methods 1994, 53, 55-63). Filament strengths used were: 0.4, 0.6, 1.0, 2, 4, 6, 8, and 15 g. Rats were placed into inverted individual plastic containers (20×12.5×20 cm) on top of a suspended wire mesh grid, and acclimated to the test chambers for at least 20 minutes. Filaments were applied perpendicular to the mid-plantar paw surface with enough force to cause slight buckling and held in place for 6-8 seconds. Positive responses included an abrupt withdrawal of the paw from the stimulus or flinching behavior immediately following removal of the stimulus. The maximum force applied was 15 g. The 50% paw withdrawal threshold (PWT) was calculated in grams (g) using the up-down method of Dixon (Dixon W. Ann Rev Pharmacol Toxicol 1980, 20, 441-462). […] All compounds were orally administered at 10 mg/kg in 10% dimethyl sulfoxide/polyethylene glycol at a volume of 2.0 mL/kg, and mechanical allodynia was determined 60 minutes following compound administration. […]
For the molecule `O=C(c1ccc(F)c(C(F)(F)F)c1)N1CCN2C[C@H](Oc3cnc(C4CC4)cn3)C[C@H]2C1` [Example 55, [(7R,8aS)-7-[(5-cyclopropylpyrazin-2-yl)oxy]hexahydropyrrolo[1,2-a]-pyrazin-2(1H)-yl][4-fluoro-3-(trifluoromethyl)phenyl]methanone], the inhibition in vivo at 10 mg/kg was 31%.
To `O=C(c1cccc(C(F)(F)F)c1)N1CCN2C[C@H](Oc3cnc(C4CC4)cn3)C[C@H]2C1` [Example 68, [(7R,8aS)-7-[(5-cyclopropylpyrazin-2-yl)oxy]hexahydropyrrolo[1,2-a]-pyrazin-2(1H)-yl][3-(trifluoromethyl)phenyl]methanone] belongs 28%; to `O=C(c1cc(C(F)(F)F)ccc1Cl)N1CCN2C[C@H](Oc3cnc(C4CC4)cn3)C[C@H]2C1` [Example 72, [2-chloro-5-(trifluoromethyl)phenyl][(7R,8aS)-7-[(5-cyclopropylpyrazin-2-yl)oxy]hexahydropyrrolo[1,2-a]pyrazin-2(1H)-yl]methanone], 20%.
On to `O=C(c1cc(F)c(Cl)cc1F)N1CCN2C[C@H](Oc3cnc(C4CC4)cn3)C[C@H]2C1` [Example 73, (4-chloro-2,5-difluorophenyl)[(7R,8aS)-7-[(5-cyclopropylpyrazin-2-yl)-oxy]hexahydropyrrolo[1,2-a]pyrazin-2(1H)-yl]methanone], for which the inhibition in vivo at 10 mg/kg turned out to be 48%.
To `O=C(c1cccc(C(F)(F)F)c1F)N1CCN2C[C@H](Oc3cnc(C4CC4)cn3)C[C@H]2C1` [Example 80, [(7R,8aS)-7-[(5-cyclopropylpyrazin-2-yl)oxy]hexahydropyrrolo[1,2-a]-pyrazin-2(1H)-yl][2-fluoro-3-(trifluoromethyl)phenyl]methanone] belongs 31%; to `O=C(c1cccc(OC(F)(F)F)c1)N1CCN2C[C@H](Oc3cnc(C4CC4)cn3)C[C@H]2C1` [Example 81, [(7R,8aS)-7-[(5-cyclopropylpyrazin-2-yl)oxy]hexahydropyrrolo[1,2-a]-pyrazin-2(1H)-yl][3-(trifluoromethoxy)phenyl]methanone], 39%.
To `O=C(/C=C/c1ccc(F)c(C(F)(F)F)c1)N1CCN2C[C@H](Oc3cnc(C4CC4)cn3)C[C@H]2C1` [Example 154, (2E)-1-[(7R,8aS)-7-[(5-cyclopropylpyrazin-2-yl)oxy]hexahydropyrrolo[1,2-a]pyrazin-2(1H)-yl]-3-[4-fluoro-3-(trifluoromethyl)phenyl]prop-2-en-1-one] belongs 0%; to `O=C(c1cccc(C(F)(F)F)c1)N1CC(=O)N2C[C@H](Oc3cnc(C4CC4)cn3)C[C@H]2C1` [Example 178, (7R,8aS)-7-[(5-cyclopropylpyrazin-2-yl)oxy]-2-[3-(trifluoromethyl)-benzoyl]hexahydropyrrolo[1,2-a]pyrazin-4(1H)-one], 28%.
Turning to `CN[C@H](C(=O)N1CCN2C[C@H](Oc3cnc(C4CC4)cn3)C[C@H]2C1)c1cccc(C(F)(F)F)c1` [Example 186, (2S)-1-[(7R,8aS)-7-[(5-cyclopropylpyrazin-2-yl)oxy]hexahydropyrrolo[1,2-a]pyrazin-2(1H)-yl]-2-(methylamino)-2-[3-(trifluoromethyl)phenyl]ethanone], the inhibition in vivo at 10 mg/kg is 91%.
With `CN[C@@H](C(=O)N1CCN2C[C@H](Oc3cnc(C4CC4)cn3)C[C@H]2C1)c1cccc(C(F)(F)F)c1` [Example 187, (2R)-1-[(7R,8aS)-7-[(5-cyclopropylpyrazin-2-yl)oxy]hexahydropyrrolo[1,2-a]pyrazin-2(1H)-yl]-2-(methylamino)-2-[3-(trifluoromethyl)phenyl]ethanone], the inhibition in vivo at 10 mg/kg was 67%.

(Values after patent US8669255B2, “Substituted octahydropyrrolo[1,2-a]pyrazines as calcium channel blockers” (AbbVie Inc., priority 2011, dated 2014).)
